Reference: patent US8299267B2, “(3-hydroxy-4-amino-butan-2-yl) -3- (2-thiazol-2-yl-pyrrolidine-1-carbonyl) benzamide derivatives and related compounds as beta-secretase inhibitors for treating” (CoMentis, Inc., priority 2007, dated 2012)
Read-outs that look alike come from different tables or passages of the source.

Legend:
cathepsin D = cathepsin D (Homo sapiens, UniProt P07339); assay: Inhibition of cathepsin D activity (substrate peptide ELDLAVEFWHDR, MALDI-TOF); assay type: biochemical
Experimental: [The procedure below names another target; the source lists this target under the same test.] (§1) A substrate peptide NH3-ELDLAVEFWHDR-CO2 (SEQ ID NO.: 1) was dissolved at 2 mg/mL in 10% glacial acetic acid and diluted into 0.009M NaOH to obtain μM concentration at pH 4.1. After equilibration at 37 degrees C., the reactions were initiated by the addition of an aliquot of memapsin 2. Aliquots were removed at time intervals, and combined with an equal volume of MALDI-TOF matrix (α-hydroxycinnamic acid in acetone, 20 mg/mL) and immediately spotted in duplicate onto a stainless-steel MALDI sample plate. MALDI-TOF mass spectrometry was performed on a PE Biosystems Voyager DE. The instrument was operated at 25,000 accelerating volts in positive mode with a 150 ns delay. Ions with a mass-to-charge ratio (m/z) were detected in the range of 650-2000 atomic mass units. Data were analyzed by the Voyager Data Explorer module to obtain ion intensity data for mass species of substrates and corresponding products in a given mixture. Relative product formation was calculated as the ratio of signal intensity of the product to the sum of signal intensities of both product and the corresponding substrate. Relative product formed per unit time was obtained from non-linear regression analysis of the data representing the initial 15% formation of product using the model: 1−e^−kT, where k was the relative hydrolytic rate constant and T was time in seconds. Initial rates were expressed relative to uninhibited controls and fit to a tight-binding model of competitive inhibition as above.

memapsin 1 = biological target: T1, memapsin 1 (Homo sapiens, UniProt Q9Y5Z0); assay: Inhibition of memapsin 1 beta-secretase activity (substrate peptide ELDLAVEFWHDR, MALDI-TOF); assay type: biochemical
T1 sequence (Q9Y5Z0 63-518): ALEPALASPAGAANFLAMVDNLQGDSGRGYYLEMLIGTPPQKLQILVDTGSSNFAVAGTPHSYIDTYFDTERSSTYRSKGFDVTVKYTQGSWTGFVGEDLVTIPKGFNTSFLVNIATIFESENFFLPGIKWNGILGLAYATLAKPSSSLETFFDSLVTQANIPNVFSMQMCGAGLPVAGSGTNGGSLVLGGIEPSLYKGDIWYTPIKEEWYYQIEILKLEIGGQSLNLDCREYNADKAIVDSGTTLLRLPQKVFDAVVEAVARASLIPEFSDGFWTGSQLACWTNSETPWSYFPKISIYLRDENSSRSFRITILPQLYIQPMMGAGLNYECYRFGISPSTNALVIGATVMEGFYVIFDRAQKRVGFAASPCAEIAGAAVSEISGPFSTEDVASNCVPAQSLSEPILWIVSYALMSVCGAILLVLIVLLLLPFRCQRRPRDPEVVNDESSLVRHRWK
Experimental: [The procedure below names another target; the source lists this target under the same test.] as §1

[1] = system: Aβ production in Chinese hamster ovary cells that over-express human APP695 with the London and Swedish mutations; assay: Cellular Aβ IC50 determination (Aβ40 sandwich ELISA); assay type: cell-based; details: Cricetulus griseus
Method in brief: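 APP695 (London/Swedish)-overexpressing CHO cells were treated 48 h after seeding with serial dilutions from near 4 μM top concentration (0.4% DMSO) for 24 h at 37 °C. Secreted Aβ40 was quantified by sandwich ELISA relative to controls and fit to a 4-parameter IC50 model.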

memapsin 2 = memapsin 2 (Homo sapiens, UniProt P56817); assay: Inhibition of memapsin 2 beta-secretase activity toward fluorogenic substrate FS-2; assay type: biochemical
Chain of memapsin 2 (P56817 46-501): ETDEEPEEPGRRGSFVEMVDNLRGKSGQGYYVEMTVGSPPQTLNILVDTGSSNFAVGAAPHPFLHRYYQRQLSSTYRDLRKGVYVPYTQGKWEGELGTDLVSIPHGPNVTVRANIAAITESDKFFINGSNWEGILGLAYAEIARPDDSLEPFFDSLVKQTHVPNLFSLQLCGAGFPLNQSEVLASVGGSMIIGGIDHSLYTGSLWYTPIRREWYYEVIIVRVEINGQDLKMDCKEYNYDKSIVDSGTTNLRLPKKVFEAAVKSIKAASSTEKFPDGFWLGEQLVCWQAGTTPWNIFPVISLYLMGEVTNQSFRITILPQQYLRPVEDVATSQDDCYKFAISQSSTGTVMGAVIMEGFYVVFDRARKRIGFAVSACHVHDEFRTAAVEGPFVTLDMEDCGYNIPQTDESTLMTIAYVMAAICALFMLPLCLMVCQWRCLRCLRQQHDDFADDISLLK
Method in brief: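 Memapsin 2 was preincubated with compound 20 min at pH 4, 37 °C, then reacted with fluorogenic substrate FS-2 (MCA-SEVNLDAEFK-DNP), an APP-derived Swedish-variant peptide. Inhibition was followed kinetically by fluorescence.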

[2] = cathepsin D, pH 4.1, 37 degrees C., read-out: CDKi
[3] = memapsin 1, pH 4.1, 37 degrees C., read-out: M1Ki
[4] = Aβ40 in CHO cells over-expressing human APP695, 24 h incubation
[5] = memapsin 2, pH 4, 37° C., 20 minutes pre-incubation, substrate FS-2, read-out: M2Ki

Chain of cathepsin D (P07339 65-412, species assumed): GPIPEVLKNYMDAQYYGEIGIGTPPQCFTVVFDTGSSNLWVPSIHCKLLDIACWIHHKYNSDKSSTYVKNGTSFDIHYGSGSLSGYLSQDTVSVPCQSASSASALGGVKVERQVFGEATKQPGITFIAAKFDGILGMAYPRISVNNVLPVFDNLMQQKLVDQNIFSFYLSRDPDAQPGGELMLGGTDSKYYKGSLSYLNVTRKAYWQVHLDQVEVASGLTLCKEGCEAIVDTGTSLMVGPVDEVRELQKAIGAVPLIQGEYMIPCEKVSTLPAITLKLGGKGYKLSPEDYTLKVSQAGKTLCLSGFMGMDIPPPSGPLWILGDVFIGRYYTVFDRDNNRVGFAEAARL

| Ki (cathepsin D; [2]) [nM] | Ki (memapsin 1; [3]) [nM] | IC50 [1, 4] [nM] | Ki (memapsin 2; [5]) [nM] | Ki (cathepsin D; read-out: CathD Ki) [nM] | Ki (memapsin 1; read-out: M1 Ki) [nM] | IC50 ([1]; cellular Aβ) [nM] | Ki (memapsin 2; read-out: M2 Ki) [nM] | Structure (SMILES) |
| --- | --- | --- | --- | --- | --- | --- | --- | --- |
| 301 to 500 | < 300 | < 300 | < 100 |  |  |  |  | Cc1csc([C@H]2CCCN2C(=O)c2cccc(C(=O)N[C@@H](Cc3ccccc3)[C@H](O)CNCc3cncc(C(C)C)c3)c2)n1 [Compound 2, N-((2S,3R)-3-hydroxy-4-((5-isopropylpyridin-3-yl)methylamino)-1-phenylbutan-2-yl)-3-((R)-2-(4-methylthiazol-2-yl)pyrrolidine-1-carbonyl)benzamide] |
| > 501 | < 300 | < 300 | < 100 |  |  |  |  | Cc1cc(C(=O)N[C@@H](Cc2ccccc2)[C@H](O)CNCc2cccc(C(F)(F)F)c2)cc(C(=O)N2CCC[C@@H]2c2nc(C)cs2)c1 [Compound 12, N-((2S,3R)-3-hydroxy-1-phenyl-4-(3-(trifluoromethyl)benzylamino)butan-2-yl)-3-methyl-5-((R)-2-(4-methylthiazol-2-yl)pyrrolidine-1-carbonyl)benzamide] |
| > 501 | 301 to 500 | < 300 | < 100 |  |  |  |  | Cc1csc([C@H]2CCCN2C(=O)c2cccc(C(=O)N[C@@H](Cc3ccccc3)[C@H](O)CNCc3cccc(C(F)(F)F)c3)c2)n1 [Compound 9, N-((2S,3R)-3-hydroxy-1-phenyl-4-(3-(trifluoromethyl)benzylamino)butan-2-yl)-3-((R)-2-(4-methylthiazol-2-yl)pyrrolidine-1-carbonyl)benzamide] |
| < 300 | 301 to 500 | < 300 | < 100 |  |  |  |  | COc1cccc(CNC[C@@H](O)[C@H](Cc2ccccc2)NC(=O)c2cccc(C(=O)N3COC[C@@H]3c3nc(C)cs3)c2)c1 [Compound 15, N-((2S,3R)-3-hydroxy-4-(3-methoxybenzylamino)-1-phenylbutan-2-yl)-3-((R)-4-(4-methylthiazol-2-yl)oxazolidine-3-carbonyl)benzamide] |
| > 501 | 301 to 500 | < 300 | < 100 |  |  |  |  | Cc1csc([C@H]2CCCN2C(=O)c2cccc(C(=O)N[C@@H](Cc3ccccc3)[C@H](O)CNCc3cccc(C(C)(C)C)c3)c2)n1 [Compound 10, N-((2S,3R)-4-(3-tert-butylbenzylamino)-3-hydroxy-1-phenylbutan-2-yl)-3-((R)-2-(4-methylthiazol-2-yl)pyrrolidine-1-carbonyl)benzamide] |
|  |  |  |  | 1080 | 826 | 23 | 7.09 | Cc1csc([C@H]2CCCN2C(=O)c2cccc(C(=O)N[C@@H](Cc3ccccc3)[C@H](O)CNCc3cccc(C(F)(F)F)c3)c2)n1 [N-((2S,3R)-3-hydroxy-1-phenyl-4-(3-(trifluoromethyl)benzylamino)butan-2-yl)-3-((R)-2-(4-methylthiazol-2-yl)pyrrolidine-1-carbonyl)benzamide] |
| < 300 | < 300 | < 300 | < 100 |  |  |  |  | Cc1cc(C(=O)N[C@@H](Cc2ccccc2)[C@H](O)CNCc2cccc(C(C)(C)C)c2)cc(C(=O)N2CCC[C@@H]2c2nc(C)cs2)c1 [Compound 14, N-((2S,3R)-4-(3-tert-butylbenzylamino)-3-hydroxy-1-phenylbutan-2-yl)-3-methyl-5-((R)-2-(4-methylthiazol-2-yl)pyrrolidine-1-carbonyl)benzamide] |
| 301 to 500 | > 501 | < 300 | < 100 |  |  |  |  | COc1cccc(CNC[C@@H](O)[C@H](Cc2ccccc2)NC(=O)c2cc(C)cc(C(=O)N3CCC[C@@H]3c3nc(C)cs3)c2)c1 [Compound 6, N-((2S,3R)-3-hydroxy-4-(3-methoxybenzylamino)-1-phenylbutan-2-yl)-3-methyl-5-((R)-2-(4-methylthiazol-2-yl)pyrrolidine-1-carbonyl)benzamide] |
|  |  | < 300 | < 100 |  |  |  |  | COc1cc(C(=O)N[C@@H](Cc2ccccc2)[C@H](O)CN[C@@H](C)c2cccc(OC)c2)cc(C(=O)N2CCC[C@@H]2c2nc(C)cs2)c1 [Compound 20, N-((2S,3R)-3-hydroxy-4-((S)-1-(3-methoxyphenyl)ethylamino)-1-phenylbutan-2-yl)-3-methoxy-5-((R)-2-(4-methylthiazol-2-yl)pyrrolidine-1-carbonyl)benzamide] |
|  |  | > 501 | > 201 |  |  |  |  | COc1cccc(CNC[C@@H](O)[C@H](Cc2ccccc2)NC(=O)c2cccc(C(=O)N3CCCC3)c2)c1 [Compound 21, N-((2S,3R)-3-hydroxy-4-(3-methoxybenzylamino)-1-phenylbutan-2-yl)-3-(pyrrolidine-1-carbonyl)benzamide] |
|  |  | < 300 | < 100 |  |  |  |  | Cc1cc(C(=O)N[C@@H](Cc2ccccc2)[C@H](O)CNCc2cncc(C(C)(C)F)c2)cc(C(=O)N2CCC[C@@H]2c2nc(C)cs2)c1 [Compound 42, N-((2S,3R)-4-((5-(2-fluoropropan-2-yl)pyridin-3-yl)methylamino)-3-hydroxy-1-phenylbutan-2-yl)-3-methyl-5-((R)-2-(4-methylthiazol-2-yl)pyrrolidine-1-carbonyl)benzamide] |
